Test results published in patent publication US4661482A, “Use of pyrazolobenzoxazines in method of treating cerebral senescence and cerebral hypoxin” (Roussel Uclaf, priority 1985, dated 1987).

Assays:
[1] = Determination of hypotensive activity (carotidien arterial pressure, anesthetised rats); assay type: in vivo, male rats of WISTAR strain; settings: vs initial control pressure
Experimental: The hypotensive activity was studied on male rats of WISTAR strain weighing about 300 g and anesthetised with nembutal (50 mg/kg by intraperitoneal route). The test product was administered intravenously into the jugular vein and the carotidien arterial pressure was measured before and after administration of the product. The following table reports the variations expressed in percentages of the arterial pressure after administration of the product in relation to the initial control arterial pressure.

[2] = Test of hypobare anoxemia (antianoxic activity); assay type: in vivo, male mice; settings: head: orally, text: sub-cutaneously, 90 mm of Hg
Experimental: A--Test of hypobare anoxemia:
Male mice weighing 20-22 g, having fasted for 5 hours, were divided into groups of 10 animals and the test product was administered to the animals sub-cutaneously. Fifteen minutes after administration of the product, the animals were placed in a 2 liter dessicator in which the pressure was brought rapidly to 90 mm of Hg by a pump, and their time of survival was noted expressed in seconds. The increase of the survival time was recorded expressed as a percentage of the animals treated in relation to the control animals submitted to the same conditions.

dopaminergic receptors [3] = test: Rotation behavior after unilateral lesion of the nigra-striated bundle by 6-hydroxydopamine; assay type: in vivo, male rats; settings: intraperitoneal; rats, groups of 8; starting dose
Experimental: Male rats of 220 g were injured in the nigra-striated dopaminergic bundle according to Ungerstedt's method [Ungerstedt, Acta physiol. Scand. (1971) Vol. 82, suppl. 367.69-93], modified by unilateral injection of 9.2 μg of 6-hydroxydopamine hydrochloride in solution in 4 μl of physiological solution containing 0.5 mg/ml of ascorbic acid. […] It therefore caused an agonistic action on the dopaminergic receptors at the central level.

dopaminergic receptors [4] = test: Stereotype behavior; assay type: in vivo, male rats; settings: intraperitoneal; rats, groups of 5; observed every half hour over 5 hours; starting dose
Experimental: The tests were carried out on groups of 5 male rats weighing 150 to 180 g and each animal was placed individually in a barred cage (29×25×17 cm) containing a few wood shaving. The test product was administered intraperitoneally and the behavior of the animals was noted every half hour over 5 hours with the rating recommended by HALLIWELL et al. [Brit. J. Pharmacol. (1964), Vol. 23, p. 330-350]. The animal was asleep (0), it was awake but immobile (1), it turned in the cage (2), it sniffed the cover (3), it licked the walls (4), it touched the wood shavings or the bars of the cage with its teeth (5), it bit the shavings or the bars of the cage (6).
The total is determined of the scores per group taken at different times after administrationof the product studied.

[5] = Determination of antihypertensive activity (spontaneously hypertensive rats); assay type: in vivo, spontaneously hypertensive male rats of the OKAMOTO strain; settings: 0.5 mg/kg orally; one hour after administration
Experimental: The anithypertensive activity was studied on spontaneously hypertensive male rats of the OKAMOTO strain aged 20 weeks and weighing 300 to 320 g. The product was administered orally 48 hours after the positioning of an intracarotidien catheter to measure the arterial pressure. The pressure was measured before and 1 hour after administration of the product. For the product of Example 3, at a dose of 0.5 mg/kg the variation in percentage of arterial pressure after administration of the product in relation to the initial control pressure was -15% one hour after administration.

cerebral neuronal cells = test: enolase test (brain deprived of blood by ligature of the arteries); assay type: in vivo; settings: Rattus norvegicus, ip; intraperitoneal; rats; read-out: dose to which the releasing of enolase is diminished
Experimental: Suffering cerebral neuronal cells release enolase and the test was carried out on rats whose brain had been totally deprived of blood by ligature of the arteries supplying the brain. The product of Example 3 administered intraperitoneally diminished the releasing of enolase to a dose of 0.1 mg/kg. Therefore it was considered that it protected the cerebral cells against ischemia.

Acute toxicity (LD0) = assay type: in vivo; settings: oral, mice
Experimental: The lethal dose LD0 of the product of Example 3 was evaluated after oral administration to mice. LD0 is the maximum dose not causing any mortality in 8 days.

Row | Compound | % Variation of arterial pressure, 5 minutes after administration ([1]; 0.01 mg/kg intravenous) | % Variation of arterial pressure, 30 minutes after administration ([1]; 0.01 mg/kg intravenous) | % Variation of arterial pressure, 5 minutes after administration ([1]; 0.1 mg/kg intravenous) | % Variation of arterial pressure, 30 minutes after administration ([1]; 0.1 mg/kg intravenous) | Increase in survival time ([2]; 1 mg/kg) | dose from which rotations contra-lateral to the injured side are caused (dopaminergic receptors [3]) | dose from which stereotype movements are caused (dopaminergic receptors [4]) | variation in percentage of arterial pressure in relation to the initial control pressure [5] | Increase in survival time ([2]; 0.01 mg/kg) | Increase in survival time ([2]; 0.1 mg/kg) | minimal effective dose (cerebral neuronal cells) | LD0 (maximum dose not causing any mortality in 8 days) (Acute toxicity (LD0))
1 | 4a RS (4aα,7α,8aβ)-7-methylthiomethyl-2,4,4a,5,6,7,8a,9-octahydro-5-propylpyrazolo-[3,4-g]-1,4-benzoxazine hydrochloride [Example 4] | -5% | -5% | -21% | -17% | +32% |  |  |  |  |  |  | 
2 | CCCN1CCO[C@@H]2Cc3n[nH]cc3C[C@H]21 (relative stereo) [Example 3, [4a SR trans]-5-propyl-2,4,4a,5,6,7,8a,9-octahydro-pyrazolo-[4,3-g]-1,4-benzoxazine] | -19% | -8% | -26% | -21% |  | 0.05 mg/kg | 0.1 mg/kg | -15% | +37% | +90% | 0.1 mg/kg | ≥ 200 mg/kg
